# Test results taken from ChEMBL document CHEMBL5579851, “Synthesis and antifungal evaluation of novel triazole derivatives bearing a pyrazole-methoxyl moiety” (Eur J Med Chem, 2024).
# Calls of active or inactive are those of the source. The calls are words filed in the database; no cut-off is given here.
# How the values were obtained:
# Saccharomyces cerevisiae [1] = assay: Antifungal activity against recombinant Saccharomyces cerevisiae Y2301 overexpressing ScErg11 Y140F mutant assessed as inhibition of fungal growth incubated for 48 hrs by CLSI based broth microdilution assay; format: functional
# Saccharomyces cerevisiae [2] = assay: Antifungal activity against recombinant Saccharomyces cerevisiae Y2462 overexpressing ScErg11/ScNcp1 assessed as inhibition of fungal growth incubated for 48 hrs by CLSI based broth microdilution assay; format: functional
# [Candida] auris [3] = Antifungal activity against fluconazole-resistant Candida auris 918 assessed as inhibition of fungal growth incubated for 48 hrs by CLSI based broth microdilution assay; format: functional; conditions: Candidozyma auris
# Candida albicans [4] = assay: Antibiofilm activity against Candida albicans SC5314 assessed as inhibition of biofilm formation at 64 ug/mL incubated for 24 hrs by XTT assay relative to control; format: functional
# Pichia kudriavzevii = assay: Antifungal activity against Candida krusei 4996 assessed as inhibition of fungal growth incubated for 48 hrs by CLSI based broth microdilution assay; format: functional
# Candida albicans [5] = assay: Antibiofilm activity against Candida albicans SC5314 assessed as increase in matured biofilm distruption incubated for 24 hrs by XTT assay; format: functional, organism-based; conditions: dose 0.25-64 µg/ml
# Candida albicans [6] = assay: Antifungal activity against Candida albicans SC5314 assessed as inhibition of fungal growth at 0.125 ug/ml after 48 hrs by TECAN plate reader analysis relative to control; format: functional
# Saccharomyces cerevisiae [7] = assay: Antifungal activity against recombinant Saccharomyces cerevisiae Y2768 overexpressing CauErg11 T132F mutant assessed as inhibition of fungal growth incubated for 48 hrs by CLSI based broth microdilution assay; format: functional
# Saccharomyces cerevisiae [8] = assay: Antifungal activity against recombinant Saccharomyces cerevisiae Y2767 overexpressing CauErg11 assessed as inhibition of fungal growth incubated for 48 hrs by CLSI based broth microdilution assay; format: functional
# Saccharomyces cerevisiae [9] = assay: Antifungal activity against recombinant Saccharomyces cerevisiae Y2721 overexpressing CpErg11/CpCpr assessed as inhibition of fungal growth incubated for 48 hrs by CLSI based broth microdilution assay; format: functional
# [10] = target: T1, Lanosterol 14-alpha demethylase (Candida albicans (strain SC5314 / ATCC MYA-2876) (Yeast), UniProt P10613); assay: Inhibition of CYP51 in Candida albicans SC5314 assessed as eburicol level at 0.0625 ug/ml after 8 hrs by GC-MS analysis relative to control; set-up: scale not given: the % may be the effect or the level left; conditions: at 0.0625 µg/mL
# T1 sequence (P10613 whole entry): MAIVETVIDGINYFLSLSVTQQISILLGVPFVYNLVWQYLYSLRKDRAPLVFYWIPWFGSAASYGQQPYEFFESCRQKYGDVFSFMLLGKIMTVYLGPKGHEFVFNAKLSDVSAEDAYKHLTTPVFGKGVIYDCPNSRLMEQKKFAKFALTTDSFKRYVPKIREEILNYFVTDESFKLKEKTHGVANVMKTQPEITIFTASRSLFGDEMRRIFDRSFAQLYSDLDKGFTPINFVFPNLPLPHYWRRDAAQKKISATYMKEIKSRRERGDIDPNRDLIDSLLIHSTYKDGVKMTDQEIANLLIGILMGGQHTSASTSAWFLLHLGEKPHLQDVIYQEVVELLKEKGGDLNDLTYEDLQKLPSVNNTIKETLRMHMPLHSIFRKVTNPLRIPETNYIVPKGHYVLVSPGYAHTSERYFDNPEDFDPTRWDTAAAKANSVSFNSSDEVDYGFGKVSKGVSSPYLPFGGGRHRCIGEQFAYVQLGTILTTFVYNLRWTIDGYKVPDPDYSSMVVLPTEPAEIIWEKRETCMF
# [Candida] auris [11] = Antifungal activity against fluconazole-resistant Candida auris 891 assessed as inhibition of fungal growth incubated for 48 hrs by CLSI based broth microdilution assay; format: functional; conditions: Candidozyma auris
# Candida albicans [12] = assay: Antifungal activity against Candida albicans SC5314 assessed as inhibition of hyphae length after 3 hrs by inverted microscopic analysis; format: functional, organism-based; conditions: dose 0.0625-1 µg/ml
# Saccharomyces cerevisiae [13] = assay: Selectivity index, ratio of MIC for antifungal activity against recombinant Saccharomyces cerevisiae Y525 overexpressing CaMdr1 to MIC for antifungal activity against recombinant Saccharomyces cerevisiae Y2411 overexpressing ScErg11; format: functional
# Candida tropicalis [14] = assay: Potency index, ratio of ravuconazole MIC to test compound MIC for antifungal activity against Candida tropicalis 8915 assessed as inhibition of fungal growth incubated for 48 hrs by CLSI based broth microdilution assay; format: functional
# Candida albicans [15] = assay: Antibiofilm activity against Candida albicans SC5314 assessed as increase in matured biofilm distruption at 64 ug/ml incubated for 24 hrs by XTT assay relative to control; format: functional; conditions: dose 64 µg/ml
# Candida albicans [16] = assay: Antifungal activity against fluconazole-resistant Candida albicans 901 assessed as inhibition of fungal growth incubated for 48 hrs by CLSI based broth microdilution assay; format: functional
# [17] = target: T1, Lanosterol 14-alpha demethylase; assay: Inhibition of CYP51 in Candida albicans SC5314 assessed as 14alpha-methylfecosterol level at 0.0625 ug/ml after 8 hrs by GC-MS analysis relative to control; set-up: scale not given: the % may be the effect or the level left; conditions: at 0.0625 µg/mL
# Saccharomyces cerevisiae [18] = assay: Antifungal activity against recombinant Saccharomyces cerevisiae Y525 overexpressing CaMdr1 assessed as inhibition of fungal growth incubated for 48 hrs by CLSI based broth microdilution assay; format: functional
# [19] = Cytotoxicity against HUVEC cells assessed as cell viability at 128 ug/ml incubated for 24 hrs by CCK-8 assay relative to control; format: toxicity, cell-based; conditions: human, at 128 µg/mL, read-out: Activity
# Saccharomyces cerevisiae [20] = assay: Antifungal activity against recombinant Saccharomyces cerevisiae Y2513 overexpressing ScErg11 Y140H mutant assessed as inhibition of fungal growth incubated for 48 hrs by CLSI based broth microdilution assay; format: functional
# [21] = target: T1, Lanosterol 14-alpha demethylase; assay: Inhibition of CYP51 in Candida albicans SC5314 assessed as ergosterol level at 0.0625 ug/ml after 8 hrs by GC-MS analysis (reference value: 86.2 %); set-up: scale not given: the % may be the effect or the level left; conditions: at 0.0625 µg/mL
# Candida albicans [22] = assay: Antifungal activity against fluconazole-resistant Candida albicans 904 assessed as inhibition of fungal growth incubated for 48 hrs by CLSI based broth microdilution assay; format: functional
# [23] = target: T1, Lanosterol 14-alpha demethylase; assay: Inhibition of CYP51 in Candida albicans SC5314 assessed as lanosterol level at 0.0625 ug/ml after 8 hrs by GC-MS analysis (reference value: 5.9 %); set-up: scale not given: the % may be the effect or the level left; conditions: at 0.0625 µg/mL
# Saccharomyces cerevisiae [24] = assay: Antifungal activity against recombinant Saccharomyces cerevisiae Y2765 overexpressing CauMdr1 assessed as inhibition of fungal growth incubated for 48 hrs by CLSI based broth microdilution assay; format: functional
# Saccharomyces cerevisiae [25] = assay: Antifungal activity against recombinant Saccharomyces cerevisiae Y2300 overexpressing ScErg11 assessed as inhibition of fungal growth incubated for 48 hrs by CLSI based broth microdilution assay; format: functional
# Candida tropicalis [26] = assay: Potency index, ratio of fluconazole MIC to test compound MIC for antifungal activity against Candida tropicalis 8915 assessed as inhibition of fungal growth incubated for 48 hrs by CLSI based broth microdilution assay; format: functional
# Saccharomyces cerevisiae [27] = assay: Antifungal activity against recombinant Saccharomyces cerevisiae Y2374 overexpressing CgErg11 assessed as inhibition of fungal growth incubated for 48 hrs by CLSI based broth microdilution assay; format: functional
# Saccharomyces cerevisiae [28] = assay: Antifungal activity against recombinant Saccharomyces cerevisiae Y2716 overexpressing CpErg11 Y132F mutant/ CpCpr assessed as inhibition of fungal growth incubated for 48 hrs by CLSI based broth microdilution assay; format: functional
# Candida albicans [29] = assay: Antifungal activity against Candida albicans SC5314 assessed as inhibition of fungal growth incubated for 48 hrs by CLSI based broth microdilution assay; format: functional
# Saccharomyces cerevisiae [30] = assay: Antifungal activity against recombinant Saccharomyces cerevisiae Y2769 overexpressing CauErg11 K143R mutant assessed as inhibition of fungal growth incubated for 48 hrs by CLSI based broth microdilution assay; format: functional
# Saccharomyces cerevisiae [31] = assay: Antifungal activity against recombinant Saccharomyces cerevisiae Y2766 overexpressing CauCdr1 assessed as inhibition of fungal growth incubated for 48 hrs by CLSI based broth microdilution assay; format: functional
# Saccharomyces cerevisiae [32] = assay: Antifungal activity against recombinant Saccharomyces cerevisiae Y2711 overexpressing CnErg11 assessed as inhibition of fungal growth incubated for 48 hrs by CLSI based broth microdilution assay; format: functional
# Saccharomyces cerevisiae [33] = assay: Antifungal activity against recombinant Saccharomyces cerevisiae Y570 overexpressing CaCdr1 assessed as inhibition of fungal growth incubated for 48 hrs by CLSI based broth microdilution assay; format: functional
# Cryptococcus neoformans = assay: Antifungal activity against Cryptococcus neoformans 32609 assessed as inhibition of fungal growth incubated for 72 hrs by CLSI based broth microdilution assay; format: functional
# Candida albicans [34] = assay: Antifungal activity against Candida albicans SC5314 assessed as inhibition of hyphae formation at 0.625 ug/ml after 3 hrs by inverted microscopic analysis relative to control; format: functional
# Nakaseomyces glabratus [35] = assay: Antifungal activity against Candida glabrata 537 assessed as inhibition of fungal growth incubated for 48 hrs by CLSI based broth microdilution assay; format: functional
# Nakaseomyces glabratus [36] = assay: Antifungal activity against Candida glabrata 537 assessed as inhibition of fungal growth at 2 ug/ml measured up to 48 hrs by TECAN plate reader analysis; format: functional, organism-based; conditions: dose 2.0 µg/ml
# Candida albicans [37] = assay: Antifungal activity against Candida albicans 10231 assessed as inhibition of fungal growth incubated for 48 hrs by CLSI based broth microdilution assay; format: functional
# [38] = target: T1, Lanosterol 14-alpha demethylase; assay: Inhibition of CYP51 in Candida albicans SC5314 assessed as obtusifoliol level at 0.0625 ug/ml after 8 hrs by GC-MS analysis relative to control; set-up: scale not given: the % may be the effect or the level left; conditions: at 0.0625 µg/mL
# Candida tropicalis [39] = assay: Antifungal activity against Candida tropicalis 8915 assessed as inhibition of fungal growth incubated for 48 hrs by CLSI based broth microdilution assay; format: functional
# [Candida] auris [40] = Antifungal activity against fluconazole-resistant Candida auris 919 assessed as inhibition of fungal growth incubated for 48 hrs by CLSI based broth microdilution assay; format: functional; conditions: Candidozyma auris
# Candida parapsilosis [41] = assay: Antifungal activity against Candida parapsilosis 22019 assessed as inhibition of fungal growth incubated for 48 hrs by CLSI based broth microdilution assay; format: functional; conditions: Lodderomyces parapsilosis
# Saccharomyces cerevisiae [42] = assay: Antifungal activity against recombinant Saccharomyces cerevisiae Y2459 overexpressing CaErg11/CaCpr assessed as inhibition of fungal growth incubated for 48 hrs by CLSI based broth microdilution assay; format: functional
# Saccharomyces cerevisiae [43] = assay: Antifungal activity against recombinant Saccharomyces cerevisiae Y2411 overexpressing ScErg11 assessed as inhibition of fungal growth incubated for 48 hrs by CLSI based broth microdilution assay; format: functional
# Candida parapsilosis [44] = assay: Antifungal activity against Candida parapsilosis 22019 assessed as inhibition of fungal growth at 0.125 ug/ml measured up to 48 hrs by TECAN plate reader analysis; format: functional, organism-based; conditions: dose 0.125 µg/ml
compound,measurement,setting,value
C[C@@H](OCc1ccn(Cc2ccc(F)cc2)n1)[C@](O)(Cn1cncn1)c1ccc(F)cc1F,MIC,Saccharomyces cerevisiae [1],0.0313 µg/mL
same,MIC,Saccharomyces cerevisiae [2],0.125 µg/mL
same,MIC,[Candida] auris [3],16 µg/mL
same,inhibition at 64 µg/mL,Candida albicans [4],> 55%
same,MIC,Pichia kudriavzevii,4 µg/mL
same,Activity,Candida albicans [5],Dose-Dependent Effect
same,inhibition at 0.125 µg/mL,Candida albicans [6],100%
same,MIC,Saccharomyces cerevisiae [7],0.063 µg/mL
same,MIC,Saccharomyces cerevisiae [8],0.0313 µg/mL
same,MIC,Saccharomyces cerevisiae [9],0.0313 µg/mL
same,Activity,[10],~ 20%
same,MIC,[Candida] auris [11],16 µg/mL
same,inhibition,Candida albicans [12],Dose-Dependent Effect
same,Ratio,Saccharomyces cerevisiae [13],16
same,Ratio,Candida tropicalis [14],32
same,Activity,Candida albicans [15],49.2%
same,MIC,Candida albicans [16],2 µg/mL
same,Activity,[17],~ 20%
same,MIC,Saccharomyces cerevisiae [18],0.25 µg/mL
same,"viability at 24 h, 128 ug/ml",[19],75.8%
same,MIC,Saccharomyces cerevisiae [20],0.016 µg/mL
same,Activity,[21],1.4%
same,MIC,Candida albicans [22],8 µg/mL
same,Activity,[23],> 25%
same,MIC,Saccharomyces cerevisiae [24],0.25 µg/mL
same,MIC,Saccharomyces cerevisiae [25],0.063 µg/mL
same,Ratio,Candida tropicalis [26],256
same,MIC,Saccharomyces cerevisiae [27],0.0313 µg/mL
same,MIC,Saccharomyces cerevisiae [28],0.125 µg/mL
same,MIC,Candida albicans [29],≤ 0.125 µg/mL
same,MIC,Saccharomyces cerevisiae [30],0.063 µg/mL
same,MIC,Saccharomyces cerevisiae [31],4 µg/mL
same,MIC,Saccharomyces cerevisiae [32],0.008 µg/mL
same,MIC,Saccharomyces cerevisiae [33],32 µg/mL
same,MIC,Cryptococcus neoformans,0.25 µg/mL
same,inhibition at 0.625 µg/mL,Candida albicans [34],100%
same,MIC,Nakaseomyces glabratus [35],≤ 0.125 µg/mL
same,inhibition,Nakaseomyces glabratus [36],inactive
same,MIC,Candida albicans [37],≤ 0.125 µg/mL
same,Activity,[38],~ 20%
same,MIC,Candida tropicalis [39],0.25 µg/mL
same,MIC,[Candida] auris [40],16 µg/mL
same,MIC,Candida parapsilosis [41],0.25 µg/mL
same,MIC,Saccharomyces cerevisiae [42],0.0313 µg/mL
same,MIC,Saccharomyces cerevisiae [43],0.016 µg/mL
same,inhibition,Candida parapsilosis [44],Active
C[C@@H](OCc1ccn(Cc2ccc(Br)cc2)n1)[C@](O)(Cn1cncn1)c1ccc(F)cc1F,MIC,[Candida] auris [3],8 µg/mL
same,MIC,Pichia kudriavzevii,2 µg/mL
same,MIC,[Candida] auris [11],16 µg/mL
same,Ratio,Candida tropicalis [14],32
same,MIC,Candida albicans [16],32 µg/mL
same,MIC,Candida albicans [22],16 µg/mL
same,Ratio,Candida tropicalis [26],256
same,MIC,Candida albicans [29],≤ 0.125 µg/mL
same,MIC,Cryptococcus neoformans,0.25 µg/mL
same,MIC,Nakaseomyces glabratus [35],≤ 0.125 µg/mL
same,MIC,Candida albicans [37],≤ 0.125 µg/mL
same,MIC,Candida tropicalis [39],0.25 µg/mL
same,MIC,[Candida] auris [40],8 µg/mL
same,MIC,Candida parapsilosis [41],0.25 µg/mL
